Patent publication US8653075B2, “Therapeutic methods employing substituted piperidines which are CCR3 antagonists” (Boehringer Ingelheim International GmbH, priority 2009, dated 2014)
pKi: −log10 of the molar value.

Molecular target: T1, human chemokine receptor CCR3 (Homo sapiens, UniProt P51677)
T1 construct: expressed in transfected cells; host or cells: K562 cell line (hCCR3-C1 cells), membrane preparation
T1 sequence (P51677 1-355): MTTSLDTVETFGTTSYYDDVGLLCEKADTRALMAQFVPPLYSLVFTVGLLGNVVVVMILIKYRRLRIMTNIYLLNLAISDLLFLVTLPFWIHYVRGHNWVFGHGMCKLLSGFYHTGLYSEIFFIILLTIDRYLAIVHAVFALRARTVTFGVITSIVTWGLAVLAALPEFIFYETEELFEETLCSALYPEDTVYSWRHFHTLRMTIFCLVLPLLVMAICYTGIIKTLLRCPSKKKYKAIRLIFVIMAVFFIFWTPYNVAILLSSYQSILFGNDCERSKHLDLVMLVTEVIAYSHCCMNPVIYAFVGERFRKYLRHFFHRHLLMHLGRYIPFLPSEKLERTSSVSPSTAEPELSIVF
Assay: CCR3 receptor binding assay (SPA, 125I-eotaxin-1 displacement, hCCR3-C1 K562 cell membranes)
Conditions: human Eotaxin-1 at human CCR3-Rezeptor; for inhibition at 1 µM: 1 μM test compound, read-out: CCR3 % inh @ 1 μM; for pKi: dose range 0.1 to 10000 nM
Method in brief: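 SPA displacement of recombinant human 125I-eotaxin-1 (30.000 dpm per well) from membranes of CCR3-transfected K562 cells (0.5-10 μg protein/well) on WGA beads. Buffer was 25 mM HEPES, 25 mM MgCl2, 1 mM CaCl2, 0.1% BSA; incubation 2 h at room temperature. Specific binding was total minus NSB (unlabelled eotaxin-1), giving % inhibition and Ki.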

inhibition at 1 µM	pKi	SMILES
66%	6.38	CCCCc1cc(C(=O)N(C)C)cc(NC(=O)C2CCC(=O)N2C2CCN(Cc3ccc(Cl)c(C)c3)CC2)n1 (stereo not drawn) [Example 213]
101%	8.70	Cc1cc(CN2CCC(N3C(=O)CC[C@@H]3C(=O)Nc3cc(C(=O)N(C)C)cc(C4CC4)n3)CC2)ccc1Cl [Example 214]

Further lines, the compound ahead of its results:

SMILES	inhibition at 1 µM	pKi
CNC(=O)c1cccc(NC(=O)[C@H]2CCC(=O)N2C2CCN(Cc3cc(Br)cs3)CC2)c1 [Example 207]	75%	6.35
Cc1cc(CN2CCC(N3C(=O)N(C)C[C@H]3C(=O)Nc3cc(C4CC4)nn3C)CC2)ccc1Cl [Example 209]	95%	7.48
Cc1cc(-c2nc[nH]n2)cc(NC(=O)C2CCC(=O)N2C2CCN(Cc3ccc(Cl)c(C)c3)CC2)n1 (stereo not drawn) [Example 210]	96%	–
Cc1cc(-c2nc[nH]n2)cc(NC(=O)[C@H]2CCC(=O)N2C2CCN(Cc3ccc(Cl)c(C)c3)CC2)n1 [Example 210]	–	7.89
Cc1cc(CN2CCC(N3C(=O)CC[C@@H]3C(=O)Nc3cc(-c4nc[nH]n4)ccn3)CC2)ccc1Cl [Example 211]	93%	7.32
